According to ChEMBL document CHEMBL3885881, “DrugMatrix”:

Species on record: Rattus norvegicus
Assay: DrugMatrix - Regimen: Daily Repeat
Assay type: toxicity, organism-based, Sprague-Dawley
Parameters: regimen Daily Repeat, gender Male, age 6-8 weeks
Conditions: in vivo, sc, route subcutaneous, […]; for ABSOLUTE BASOPHIL / ABSOLUTE EOSINOPHIL / ABSOLUTE LYMPHOCYTE / ABSOLUTE MONOCYTE / ABSOLUTE SEGMENTED NEUTROPHIL / BASOPHIL / EOSINOPHIL / ERYTHROCYTE COUNT / HEMATOCRIT / HEMOGLOBIN / LEUKOCYTE COUNT / LYMPHOCYTE / MEAN CORPUSCULAR HEMOGLOBIN / MEAN CORPUSCULAR HEMOGLOBIN CONCENTRATION / MEAN CORPUSCULAR VOLUME / MONOCYTE / NEUTROPHIL / NUCLEATED RED BLOOD CELLS / PLATELET COUNT: tissue Blood; for ALANINE AMINOTRANSFERASE / ALBUMIN / ALKALINE PHOSPHATASE / ASPARTATE AMINOTRANSFERASE / BLOOD UREA NITROGEN / CARBON DIOXIDE / CHLORIDE / CHOLESTEROL / CREATINE PHOSPHOKINASE / CREATININE / GLUCOSE / LACTATE DEHYDROGENASE / LIPASE / PHOSPHORUS / POTASSIUM / SODIUM / TOTAL BILIRUBIN / TOTAL PROTEIN / URIC ACID: tissue Plasma
[1] = 0 mg/kg, 72 h, dose level Control, time 3 day
[2] = 0 mg/kg, 120 h, dose level Control, time 5 day
[3] = 22 mg/kg, 72 h, dose level Low, time 3 day
[4] = 22 mg/kg, 120 h, dose level Low, time 5 day

Compound: O=C(O)c1ccccc1O [SALICYLIC ACID]
- ABSOLUTE BASOPHIL [1]: 0 CELLS/uL
- ABSOLUTE EOSINOPHIL [1]: 0 CELLS/uL
- ABSOLUTE LYMPHOCYTE [1]: 10887 CELLS/uL
- ABSOLUTE MONOCYTE [1]: 56 CELLS/uL
- ABSOLUTE SEGMENTED NEUTROPHIL [1]: 1057 CELLS/uL
- BASOPHIL [1]: 0%
- EOSINOPHIL [1]: 0%
- ERYTHROCYTE COUNT [1]: 5.31 x10E6/uL
- HEMATOCRIT [1]: 33.78%
- HEMOGLOBIN [1]: 13.4 G/DL
- LEUKOCYTE COUNT [1]: 12 x10E3/uL
- LYMPHOCYTE [1]: 91.17%
- MEAN CORPUSCULAR HEMOGLOBIN [1]: 25.25 pg
- MEAN CORPUSCULAR HEMOGLOBIN CONCENTRATION [1]: 39.65 G/DL
- MEAN CORPUSCULAR VOLUME [1]: 63.65 fL
- MONOCYTE [1]: 0.5%
- NEUTROPHIL [1]: 8.33%
- NUCLEATED RED BLOOD CELLS [1]: 0 /100WBC
- PLATELET COUNT [1]: 1142 x10E3/uL
- ALANINE AMINOTRANSFERASE [1]: 57.17 u/L
- ALBUMIN [1]: 4.28 G/DL
- ALKALINE PHOSPHATASE [1]: 425.83 u/L
- ASPARTATE AMINOTRANSFERASE [1]: 93.83 u/L
- BLOOD UREA NITROGEN [1]: 14.17 mg/dL
- CARBON DIOXIDE [1]: 33.5 mmol/L
- CHLORIDE [1]: 100 MEQ/L
- CHOLESTEROL [1]: 70.33 mg/dL
- CREATINE PHOSPHOKINASE [1]: 438.67 u/L
- CREATININE [1]: 0.19 mg/dL
- GLUCOSE [1]: 138.5 mg/dL
- LACTATE DEHYDROGENASE [1]: 190.17 u/L
- LIPASE [1]: 9.83 u/L
- PHOSPHORUS [1]: 11.05 mg/dL
- POTASSIUM [1]: 6.59 MEQ/L
- SODIUM [1]: 143.58 MEQ/L
- TOTAL BILIRUBIN [1]: 0.22 mg/dL
- TOTAL PROTEIN [1]: 6.15 G/DL
- URIC ACID [1]: 1.3 mg/dL
- ABSOLUTE BASOPHIL [2]: 0 CELLS/uL
- ABSOLUTE EOSINOPHIL [2]: 91.17 CELLS/uL
- ABSOLUTE LYMPHOCYTE [2]: 11847.67 CELLS/uL
- ABSOLUTE MONOCYTE [2]: 172.83 CELLS/uL
- ABSOLUTE SEGMENTED NEUTROPHIL [2]: 1105 CELLS/uL
- BASOPHIL [2]: 0%
- EOSINOPHIL [2]: 0.67%
- ERYTHROCYTE COUNT [2]: 5.35 x10E6/uL
- HEMATOCRIT [2]: 33.65%
- HEMOGLOBIN [2]: 13.42 G/DL
- LEUKOCYTE COUNT [2]: 13.22 x10E3/uL
- LYMPHOCYTE [2]: 89.83%
- MEAN CORPUSCULAR HEMOGLOBIN [2]: 25.12 pg
- MEAN CORPUSCULAR HEMOGLOBIN CONCENTRATION [2]: 39.9 G/DL
- MEAN CORPUSCULAR VOLUME [2]: 63 fL
- MONOCYTE [2]: 1.33%
- NEUTROPHIL [2]: 8.17%
- NUCLEATED RED BLOOD CELLS [2]: 0 /100WBC
- PLATELET COUNT [2]: 1347.83 x10E3/uL
- ALANINE AMINOTRANSFERASE [2]: 50 u/L
- ALBUMIN [2]: 4.1 G/DL
- ALKALINE PHOSPHATASE [2]: 329.17 u/L
- ASPARTATE AMINOTRANSFERASE [2]: 77.17 u/L
- BLOOD UREA NITROGEN [2]: 16.83 mg/dL
- CARBON DIOXIDE [2]: 34.83 mmol/L
- CHLORIDE [2]: 99.83 MEQ/L
- CHOLESTEROL [2]: 75.67 mg/dL
- CREATINE PHOSPHOKINASE [2]: 295.83 u/L
- CREATININE [2]: 0.18 mg/dL
- GLUCOSE [2]: 156.33 mg/dL
- LACTATE DEHYDROGENASE [2]: 166.83 u/L
- LIPASE [2]: 9.83 u/L
- PHOSPHORUS [2]: 12.18 mg/dL
- POTASSIUM [2]: 6.69 MEQ/L
- SODIUM [2]: 143.97 MEQ/L
- TOTAL BILIRUBIN [2]: 0.22 mg/dL
- TOTAL PROTEIN [2]: 6.05 G/DL
- URIC ACID [2]: 1.6 mg/dL
- ABSOLUTE BASOPHIL [3]: 0 CELLS/uL
- ABSOLUTE EOSINOPHIL [3]: 26.67 CELLS/uL
- ABSOLUTE LYMPHOCYTE [3]: 6989.67 CELLS/uL
- ABSOLUTE MONOCYTE [3]: 0 CELLS/uL
- ABSOLUTE SEGMENTED NEUTROPHIL [3]: 550.33 CELLS/uL
- BASOPHIL [3]: 0%
- EOSINOPHIL [3]: 0.33%
- ERYTHROCYTE COUNT [3]: 5.05 x10E6/uL
- HEMATOCRIT [3]: 33.17%
- HEMOGLOBIN [3]: 13.07 G/DL
- LEUKOCYTE COUNT [3]: 7.57 x10E3/uL
- LYMPHOCYTE [3]: 92.33%
- MEAN CORPUSCULAR HEMOGLOBIN [3]: 25.9 pg
- MEAN CORPUSCULAR HEMOGLOBIN CONCENTRATION [3]: 39.43 G/DL
- MEAN CORPUSCULAR VOLUME [3]: 65.6 fL
- MONOCYTE [3]: 0%
- NEUTROPHIL [3]: 7.33%
- NUCLEATED RED BLOOD CELLS [3]: 0 /100WBC
- PLATELET COUNT [3]: 1158.33 x10E3/uL
- ALANINE AMINOTRANSFERASE [3]: 58.33 u/L
- ALBUMIN [3]: 4.43 G/DL
- ALKALINE PHOSPHATASE [3]: 511.33 u/L
- ASPARTATE AMINOTRANSFERASE [3]: 103 u/L
- BLOOD UREA NITROGEN [3]: 13.33 mg/dL
- CARBON DIOXIDE [3]: 32 mmol/L
- CHLORIDE [3]: 102 MEQ/L
- CHOLESTEROL [3]: 71 mg/dL
- CREATINE PHOSPHOKINASE [3]: 208.67 u/L
- CREATININE [3]: 0.19 mg/dL
- GLUCOSE [3]: 141.33 mg/dL
- LACTATE DEHYDROGENASE [3]: 161.67 u/L
- LIPASE [3]: 10 u/L
- PHOSPHORUS [3]: 12.97 mg/dL
- POTASSIUM [3]: 6.87 MEQ/L
- SODIUM [3]: 150.3 MEQ/L
- TOTAL BILIRUBIN [3]: 0.2 mg/dL
- TOTAL PROTEIN [3]: 6.27 G/DL
- URIC ACID [3]: 0.83 mg/dL
- ABSOLUTE BASOPHIL [4]: 0 CELLS/uL
- ABSOLUTE EOSINOPHIL [4]: 207.33 CELLS/uL
- ABSOLUTE LYMPHOCYTE [4]: 12679.33 CELLS/uL
- ABSOLUTE MONOCYTE [4]: 80 CELLS/uL
- ABSOLUTE SEGMENTED NEUTROPHIL [4]: 1400 CELLS/uL
- BASOPHIL [4]: 0%
- EOSINOPHIL [4]: 1.33%
- ERYTHROCYTE COUNT [4]: 5.41 x10E6/uL
- HEMATOCRIT [4]: 34.5%
- HEMOGLOBIN [4]: 13.87 G/DL
- LEUKOCYTE COUNT [4]: 14.37 x10E3/uL
- LYMPHOCYTE [4]: 88%
- MEAN CORPUSCULAR HEMOGLOBIN [4]: 25.6 pg
- MEAN CORPUSCULAR HEMOGLOBIN CONCENTRATION [4]: 40.23 G/DL
- MEAN CORPUSCULAR VOLUME [4]: 63.73 fL
- MONOCYTE [4]: 0.67%
- NEUTROPHIL [4]: 10%
- NUCLEATED RED BLOOD CELLS [4]: 0 /100WBC
- PLATELET COUNT [4]: 1310 x10E3/uL
- ALANINE AMINOTRANSFERASE [4]: 52.67 u/L
- ALBUMIN [4]: 4.17 G/DL
- ALKALINE PHOSPHATASE [4]: 362.33 u/L
- ASPARTATE AMINOTRANSFERASE [4]: 87.67 u/L
- BLOOD UREA NITROGEN [4]: 16.33 mg/dL
- CARBON DIOXIDE [4]: 30.33 mmol/L
- CHLORIDE [4]: 105.67 MEQ/L
- CHOLESTEROL [4]: 78.33 mg/dL
- CREATINE PHOSPHOKINASE [4]: 263.33 u/L
- CREATININE [4]: 0.18 mg/dL
- GLUCOSE [4]: 153.33 mg/dL
- LACTATE DEHYDROGENASE [4]: 272.67 u/L
- LIPASE [4]: 9 u/L
- PHOSPHORUS [4]: 13.37 mg/dL
- POTASSIUM [4]: 7.11 MEQ/L
- SODIUM [4]: 149.4 MEQ/L
- TOTAL BILIRUBIN [4]: 0.2 mg/dL
- TOTAL PROTEIN [4]: 6.07 G/DL
- URIC ACID [4]: 1.5 mg/dL
